# In PubChem BioAssay (NCI):
#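 GI50 = concentration required for 50% inhibition of growth. Definition used: TGI = concentration required for complete inhibition of growth.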
# Key:
# Assay in all cases: growth of human tumour cells (NCI), 384-well format
# [1] = tested on: 786-0 renal
# [2] = tested on: A498 renal
# [3] = tested on: A549 NSCLC
# [4] = tested on: ACHN renal
# [5] = tested on: BT-549 breast
# [6] = tested on: CAKI-1 renal
# [7] = tested on: CCRF-CEM leukemia
# [8] = tested on: COLO 205 colon
# [9] = tested on: DU-145 prostate
# [10] = tested on: EKVX NSCLC
# [11] = tested on: HCC-2998 colon
# [12] = tested on: HCT-15 colon
# [13] = tested on: HL-60(TB) leukemia
# [14] = tested on: HOP-62 NSCLC
# [15] = tested on: HOP-92 NSCLC
# [16] = tested on: HS 578T breast
# [17] = tested on: HT29 colon
# [18] = tested on: IGROV1 ovarian
# [19] = tested on: K-562 leukemia
# [20] = tested on: KM12 colon
# [21] = tested on: LOX IMVI melanoma
# [22] = tested on: M14 melanoma
# [23] = tested on: MALME-3M melanoma
# [24] = tested on: MCF7 breast
# [25] = tested on: MDA-MB-231 breast
# [26] = tested on: MDA-MB-435 melanoma
# [27] = tested on: MDA-MB-468 breast
# [28] = tested on: MOLT-4 leukemia
# [29] = tested on: NCI-H226 lung
# [30] = tested on: NCI-H23 lung
# [31] = tested on: NCI-H322M lung
# [32] = tested on: NCI-H460 NSCLC
# [33] = tested on: NCI-H522 lung
# [34] = tested on: NCI/ADR-RES ovarian
# [35] = tested on: OVCAR-3 ovarian
# [36] = tested on: OVCAR-4 ovarian
# [37] = tested on: OVCAR-5 ovarian
# [38] = tested on: OVCAR-8 ovarian
# [39] = tested on: PC-3 prostate
# [40] = tested on: RPMI-8226 leukemia
# [41] = tested on: RXF 393 renal
# [42] = tested on: SF-268 CNS
# [43] = tested on: SF-295 CNS
# [44] = tested on: SF-539 CNS
# [45] = tested on: SK-MEL-28 melanoma
# [46] = tested on: SK-MEL-5 melanoma
# [47] = tested on: SK-OV-3 ovarian
# [48] = tested on: SN12C renal
# [49] = tested on: SNB-19 CNS
# [50] = tested on: SNB-75 CNS
# [51] = tested on: SR leukemia
# [52] = tested on: SW-620 colon
# [53] = tested on: T-47D breast
# [54] = tested on: TK-10 renal
# [55] = tested on: U251 glioblastoma
# [56] = tested on: UACC-257 melanoma
# [57] = tested on: UACC-62 melanoma
# [58] = tested on: UO-31 renal
# [59] = tested on: HCT-116 colon
structure (smiles),measurement,setting,value
CNS(=O)(=O)Nc1nccc(Cc2c(C)c3ccc(Oc4ncccn4)cc3oc2=O)c1F,GI50,[1],98.4 µM
same,TGI,[1],> 100 µM
same,GI50,[2],13.3 µM
same,TGI,[2],> 100 µM
same,GI50,[3],0.42 µM
same,TGI,[3],> 100 µM
same,GI50,[4],4.16 µM
same,TGI,[4],> 100 µM
same,GI50,[5],39.6 µM
same,TGI,[5],> 100 µM
same,GI50,[6],0.319 µM
same,TGI,[6],> 100 µM
same,GI50,[7],5.06 µM
same,TGI,[7],49.1 µM
same,GI50,[8],0.0151 µM
same,TGI,[8],0.586 µM
same,GI50,[9],26.4 µM
same,TGI,[9],> 100 µM
same,GI50,[10],6.39 µM
same,TGI,[10],> 100 µM
same,GI50,[11],0.0142 µM
same,TGI,[11],0.398 µM
same,GI50,[12],4.39 µM
same,TGI,[12],> 100 µM
same,GI50,[13],< 0.01 µM
same,TGI,[13],> 100 µM
same,GI50,[14],0.289 µM
same,TGI,[14],> 100 µM
same,GI50,[15],0.236 µM
same,TGI,[15],3.93 µM
same,GI50,[16],7.8 µM
same,TGI,[16],> 100 µM
same,GI50,[17],0.0418 µM
same,TGI,[17],> 100 µM
same,GI50,[18],0.29 µM
same,TGI,[18],> 100 µM
same,GI50,[19],0.433 µM
same,TGI,[19],> 100 µM
same,GI50,[20],0.181 µM
same,TGI,[20],> 100 µM
same,GI50,[21],0.164 µM
same,TGI,[21],5.49 µM
same,GI50,[22],< 0.01 µM
same,TGI,[22],0.102 µM
same,GI50,[23],< 0.01 µM
same,TGI,[23],0.0124 µM
same,GI50,[24],> 100 µM
same,TGI,[24],> 100 µM
same,GI50,[25],0.0731 µM
same,TGI,[25],43.8 µM
same,GI50,[26],0.0305 µM
same,TGI,[26],> 100 µM
same,GI50,[27],1.75 µM
same,TGI,[27],5.95 µM
same,GI50,[28],13 µM
same,TGI,[28],82.7 µM
same,GI50,[29],0.848 µM
same,TGI,[29],> 100 µM
same,GI50,[30],0.0459 µM
same,TGI,[30],2.54 µM
same,GI50,[31],0.549 µM
same,TGI,[31],> 100 µM
same,GI50,[32],10.2 µM
same,TGI,[32],> 100 µM
same,GI50,[33],12.5 µM
same,TGI,[33],> 100 µM
same,GI50,[34],15.2 µM
same,TGI,[34],> 100 µM
same,GI50,[35],> 100 µM
same,TGI,[35],> 100 µM
same,GI50,[36],0.413 µM
same,TGI,[36],> 100 µM
same,GI50,[37],0.041 µM
same,TGI,[37],> 100 µM
same,GI50,[38],39.2 µM
same,TGI,[38],> 100 µM
same,GI50,[39],> 100 µM
same,TGI,[39],> 100 µM
same,GI50,[40],0.0415 µM
same,TGI,[40],20.5 µM
same,GI50,[41],4.82 µM
same,TGI,[41],> 100 µM
same,GI50,[42],> 100 µM
same,TGI,[42],> 100 µM
same,GI50,[43],68.6 µM
same,TGI,[43],> 100 µM
same,GI50,[44],12.9 µM
same,TGI,[44],> 100 µM
same,GI50,[45],0.0137 µM
same,TGI,[45],0.0616 µM
same,GI50,[46],0.048 µM
same,TGI,[46],9.68 µM
same,GI50,[47],21.4 µM
same,TGI,[47],> 100 µM
same,GI50,[48],0.0724 µM
same,TGI,[48],> 100 µM
same,GI50,[49],20.9 µM
same,TGI,[49],> 100 µM
same,GI50,[50],> 100 µM
same,TGI,[50],> 100 µM
same,GI50,[51],2.92 µM
same,TGI,[51],40.9 µM
same,GI50,[52],0.0167 µM
same,TGI,[52],> 100 µM
same,GI50,[53],3.67 µM
same,TGI,[53],83.3 µM
same,GI50,[54],7.49 µM
same,TGI,[54],> 100 µM
same,GI50,[55],5.57 µM
same,TGI,[55],> 100 µM
same,GI50,[56],0.012 µM
same,TGI,[56],0.0529 µM
same,GI50,[57],0.012 µM
same,TGI,[57],0.138 µM
same,GI50,[58],14 µM
same,TGI,[58],> 100 µM
O=C(O)CSc1cc(NS(=O)(=O)c2ccc(Br)cc2)c2ccccc2c1O,GI50,[1],6.17 µM
same,TGI,[1],18.3 µM
same,GI50,[2],16.9 µM
same,TGI,[2],30.6 µM
same,GI50,[3],11.6 µM
same,TGI,[3],23.8 µM
same,GI50,[4],4.15 µM
same,TGI,[4],13.6 µM
same,GI50,[5],2.93 µM
same,TGI,[5],7.45 µM
same,GI50,[6],10.9 µM
same,TGI,[6],22.8 µM
same,GI50,[7],2.02 µM
same,TGI,[7],3.45 µM
same,GI50,[8],3.12 µM
same,TGI,[8],9.58 µM
same,GI50,[9],2.37 µM
same,TGI,[9],5.24 µM
same,GI50,[10],1.92 µM
same,TGI,[10],3.63 µM
same,GI50,[11],11.7 µM
same,TGI,[11],23.9 µM
same,GI50,[59],2.19 µM
same,TGI,[59],4.15 µM
same,GI50,[12],10.6 µM
same,TGI,[12],22.4 µM
same,GI50,[13],1.82 µM
same,TGI,[13],3.22 µM
same,GI50,[14],3.02 µM
same,TGI,[14],8.45 µM
same,GI50,[15],2.24 µM
same,TGI,[15],4.57 µM
same,GI50,[16],1.63 µM
same,TGI,[16],3.04 µM
same,GI50,[17],3.94 µM
same,TGI,[17],11.9 µM
same,GI50,[18],2.69 µM
same,TGI,[18],6.51 µM
same,GI50,[19],1.39 µM
same,TGI,[19],2.71 µM
same,GI50,[20],4.91 µM
same,TGI,[20],16.2 µM
same,GI50,[21],1.79 µM
same,TGI,[21],3.26 µM
same,GI50,[22],3.11 µM
same,TGI,[22],7.41 µM
same,GI50,[23],1.95 µM
same,TGI,[23],3.38 µM
same,GI50,[24],1.62 µM
same,TGI,[24],3.15 µM
same,GI50,[25],1.89 µM
same,TGI,[25],3.72 µM
same,GI50,[26],2 µM
same,TGI,[26],3.43 µM
same,GI50,[27],1.39 µM
same,TGI,[27],2.7 µM
same,GI50,[28],1.96 µM
same,TGI,[28],3.39 µM
same,GI50,[29],6.7 µM
same,TGI,[29],18.5 µM
same,GI50,[30],1.82 µM
same,TGI,[30],3.94 µM
same,GI50,[31],16.2 µM
same,TGI,[31],29.7 µM
same,GI50,[32],13.5 µM
same,TGI,[32],26.3 µM
same,GI50,[33],7.47 µM
same,TGI,[33],20 µM
same,GI50,[34],2.22 µM
same,TGI,[34],4.79 µM
same,GI50,[35],0.404 µM
same,TGI,[35],1.69 µM
same,GI50,[36],1.73 µM
same,TGI,[36],3.12 µM
same,GI50,[38],1.92 µM
same,TGI,[38],3.97 µM
same,GI50,[39],2.38 µM
same,TGI,[39],5.77 µM
same,GI50,[40],1.63 µM
same,TGI,[40],3.37 µM
same,GI50,[41],1.75 µM
same,TGI,[41],3.44 µM
same,GI50,[42],2.4 µM
same,TGI,[42],6.02 µM
same,GI50,[43],6.61 µM
same,TGI,[43],19 µM
same,GI50,[44],2.2 µM
same,TGI,[44],3.72 µM
same,GI50,[45],2.25 µM
same,TGI,[45],4.05 µM
same,GI50,[46],1.98 µM
same,TGI,[46],3.52 µM
same,GI50,[47],5.22 µM
same,TGI,[47],16.6 µM
same,GI50,[48],2.03 µM
same,TGI,[48],3.64 µM
same,GI50,[49],5.03 µM
same,TGI,[49],15.4 µM
same,GI50,[50],2.19 µM
same,TGI,[50],4.5 µM
same,GI50,[51],2.6 µM
same,TGI,[51],4.08 µM
same,GI50,[52],2.42 µM
same,TGI,[52],6.09 µM
same,GI50,[53],2.61 µM
same,TGI,[53],5.11 µM
same,GI50,[54],14.2 µM
same,TGI,[54],27.2 µM
same,GI50,[55],2.55 µM
same,TGI,[55],6.16 µM
same,GI50,[56],1.65 µM
same,TGI,[56],3.03 µM
same,GI50,[57],1.91 µM
same,TGI,[57],3.33 µM
same,GI50,[58],2.05 µM
same,TGI,[58],3.91 µM
